Data published in US11512053B2, “Arginine methyltransferase inhibitors and uses thereof” (priority 2013, dated 2022).
pIC50: −log10 of the molar value. Structures can show the parent of a compound that is named as a salt. Where two headings read alike, the source gives them in different places.

Legend:
[1] = molecular target: full-length human PRMT8 isoform 1 (Homo sapiens, UniProt Q9NR22); test: PRMT8 Biochemical Assay (3H-SAM Flashplate, peptide substrate)
Procedure, shortened: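 Scintillation Flashplate capture of biotinylated histone H4 (31-45) peptide (150 nM) methylated by 1.5 nM PRMT8 using 3H-SAM (50 nM) with unlabelled SAM (550 nM); enzyme and compound preincubated 30 min, room temperature, in Bicine pH 7.6 buffer with TCEP, BSG, Tween 20 and 2% DMSO. Stopped with excess cold SAM (400 uM); IC50 from % inhibition, min control 1 mM SAH.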

[2] = tested on: mono-methyl arginine in RKO cells; test: RKO Methylation Assay, In Cell Western (ICW) for detection of mono-methyl arginine and DNA content; format: cell-based; conditions: for EC30: Homo sapiens, RKO, 72 h
Procedure, shortened: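 RKO cells were treated with compound for 72 hours at 37 °C, methanol-fixed and stained overnight at 4 °C with anti-mono-methyl arginine (1:200), with DRAQ5 for DNA. Odyssey 800/700 nm intensity ratio was normalized to DMSO and 20 μM reference-compound controls. EC30 from triplicate nine-point curves.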

[3] = read-out: Biochemical IC50 PRMT8
[4] = single experiment or average of multiple experiments, read-out: Biochemical IC50 PRMT8
[5] = RKO cells, 72 hours compound incubation, mono-methyl arginine signal normalised to DNA content (DRAQ5), percent activation vs 20 μM reference compound, read-out: In Cell Western EC30
[6] = RKO cells, 72 hours incubation, mono-methyl arginine signal normalised to DNA content, single experiment or average of multiple experiments, read-out: In Cell Western EC30
[7] = Biochemical IC50 PRMT8, single experiment or average of multiple experiments
[8] = read-out: In Cell Western EC30, RKO cells, 72 hours compound incubation, mono-methyl arginine signal normalised to DNA content (DRAQ5), percent activation vs 20 μM reference compound
[9] = read-out: In Cell Western EC30, RKO cells, 72 hours incubation, mono-methyl arginine signal normalised to DNA content, single experiment or average of multiple experiments
[10] = RKO cells, 72 hours compound incubation, mono-methyl arginine signal normalised to DNA content (DRAQ5), percent activation vs 20 μM reference compound

full-length human PRMT8 isoform 1, sequence (Q9NR22 whole entry, canonical isoform): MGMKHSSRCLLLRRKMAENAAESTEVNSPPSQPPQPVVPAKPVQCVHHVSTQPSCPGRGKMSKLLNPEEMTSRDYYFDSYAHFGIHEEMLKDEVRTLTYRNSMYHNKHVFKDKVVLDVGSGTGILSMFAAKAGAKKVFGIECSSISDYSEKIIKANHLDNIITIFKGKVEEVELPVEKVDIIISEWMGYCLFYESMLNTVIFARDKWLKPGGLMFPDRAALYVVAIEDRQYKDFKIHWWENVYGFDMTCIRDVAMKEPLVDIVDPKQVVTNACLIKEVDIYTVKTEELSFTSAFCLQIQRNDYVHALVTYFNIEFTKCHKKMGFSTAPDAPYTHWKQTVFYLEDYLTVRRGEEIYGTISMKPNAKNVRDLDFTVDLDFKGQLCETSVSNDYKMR

SMILES: CNCCN(C)Cc1c[nH]nc1C1CCC2(CCC(C)(C)CC2)OC1 (stereo not shown) [Compound 65]
- pIC50 [1, 3]: > 7.00
- pIC50 [1, 4]: 7.87
- EC30 [2, 5]: < 3000 nM
- EC30 [2, 6]: 77.5 nM

SMILES: CNCCN(C)Cc1c[nH]nc1C1CCC(C)(C)C(C(=O)NCC(C)C)C1 (stereo not shown) [Compound 90]
- pIC50 [1, 3]: 6.00 to 7.00
- pIC50 [1, 4]: 6.93
- EC30 [2, 5]: < 3000 nM
- EC30 [2, 6]: 316 nM

SMILES: CNCCN(C)Cc1c[nH]nc1[C@H]1CC[C@]2(CC1)CC(C)(C)CO2 [Compound 134, methyl[2-(methylamino)ethyl]([3-[(5r,8r)-3,3-dimethyl-1-oxaspiro[4.5]decan-8-yl]-1H-pyrazol-4-yl]methyl)amine]
- pIC50 ([1]; Biochemical IC50 PRMT8): > 7.00
- pIC50 [1, 7]: 7.61
- EC30 [2, 8]: < 3000 nM
- EC30 [2, 9]: 33.2 nM

SMILES: CC1CCC(c2n[nH]cc2CN(C)CCN)CC1 (stereo not shown) [Compound 37, N^1-methyl-N^1-((3-(4-methylcyclohexyl)-1H-pyrazol-4-yl)methyl)ethane-1,2-diamine]
- pIC50 [1, 4]: 6.89
- EC30 [2, 6]: 260 nM
- In Cell Western EC30 [2, 10]: A (“A” indicates an EC30 ≤ 3.00 μM)

SMILES: CN(CCN)Cc1c[nH]nc1C1CCCC1 [Compound 31]
- pIC50 [1, 4]: 5.94
- EC30 [2, 6]: > 20000 nM
- In Cell Western EC30 [2, 10]: C (“C” indicates an EC30 > 12.01 μM)

SMILES: CNCCN(C)Cc1c[nH]nc1C1CCC(Oc2ccccc2)CC1 (stereo not shown) [Compound 67]
- pIC50 [1, 3]: > 7.00
- pIC50 [1, 4]: 7.92
- EC30 [2, 5]: < 3000 nM
- EC30 [2, 6]: 81 nM

SMILES: CNCCN(C)Cc1ccnn1C1CCC2(CCCC2)CC1 [Compound 275, Methyl[2-(methylamino)ethyl][(1-[spiro[4.5]decan-8-yl]-1H-pyrazol-5-yl)methyl]amine trifluoroacetate]
- pIC50 [1, 3]: > 7.00
- pIC50 [1, 4]: 7.98
- EC30 [2, 8]: < 3000 nM
- EC30 [2, 9]: 84 nM

SMILES: CNCCN(C)Cc1c[nH]nc1C1CCC2(CCCC2)CC1 [Compound 48]
- pIC50 [1, 4]: 8.08
- EC30 [2, 5]: < 3000 nM
- EC30 [2, 6]: 14 nM

SMILES: CNCCN(C)Cc1c[nH]nc1C1CCC2(CCOC2)CC1 (stereo not shown) [Compound 54]
- pIC50 [1, 4]: 7.61
- EC30 [2, 5]: < 3000 nM
- EC30 [2, 6]: 87 nM

SMILES: CNCCN(C)Cc1c[nH]nc1C1CCC(COC)CC1 (stereo not shown) [Compound 53]
- pIC50 [1, 4]: 7.89
- EC30 [2, 5]: < 3000 nM
- EC30 [2, 6]: 17 nM

SMILES: CN(CCN)Cc1n[nH]cc1C1CCCCC1 [Compound 33]
- pIC50 [1, 4]: 6.30
- EC30 [2, 6]: 3330 nM
- In Cell Western EC30 [2, 10]: B (“B” indicates an EC30 of 3.01-12.00 μM)

SMILES: CN(CCN)Cc1c[nH]nc1C1=CCCC1 [Compound 25]
- pIC50 [1, 4]: 5.54
- EC30 [2, 6]: 11800 nM
- In Cell Western EC30 [2, 10]: B (“B” indicates an EC30 of 3.01-12.00 μM)

SMILES: CNCCN(C)Cc1cnn(C)c1C1CCC2(CCCC2)CC1 [Compound 49]
- pIC50 [1, 4]: 8.14
- EC30 [2, 6]: 50 nM

SMILES: CNCCN(C)Cc1c[nH]nc1C1CCC(C)(C)C(C(=O)NCc2ccccc2)C1 (stereo not shown) [Compound 92]
- pIC50 [1, 3]: > 7.00
- pIC50 [1, 4]: 7.38
- EC30 [2, 5]: < 3000 nM
- EC30 [2, 6]: 2170 nM

SMILES: CNCCN(C)Cc1c[nH]nc1C1CCC(C)(C)C(C(=O)NCCC(C)C)C1 (stereo not shown) [Compound 91]
- pIC50 [1, 3]: > 7.00
- pIC50 [1, 4]: 7.54
- EC30 [2, 5]: < 3000 nM
- EC30 [2, 6]: 2060 nM

SMILES: CN(CCN)Cc1c[nH]nc1/C=C/Cc1ccccc1 [Compound 24]
- pIC50 [1, 4]: 6.52
- EC30 [2, 6]: 2400 nM
- In Cell Western EC30 [2, 10]: A (“A” indicates an EC30 ≤ 3.00 μM)

SMILES: CNCCN(C)Cc1cn(C)nc1C1CCC2(CCCC2)CC1 [Compound 47]
- pIC50 [1, 4]: 7.90
- EC30 [2, 6]: 52 nM

SMILES: CNCCN(C)Cc1c[nH]nc1C1CCC2(CCCCC2)CC1 [Compound 46]
- pIC50 [1, 4]: 8.21
- EC30 [2, 5]: < 3000 nM
- EC30 [2, 6]: 8 nM

SMILES: CNCCN(C)Cc1c[nH]nc1[C@H]1CC[C@@]2(CC1)CC(C)(C)CO2 [Compound 133, Methyl[2-(methylamino)ethyl]([3-[(5s,8s)-3,3-dimethyl-1-oxaspiro[4.5]decan-8-yl]-1H-pyrazol-4-yl]methyl)amine]
- pIC50 ([1]; Biochemical IC50 PRMT8): > 7.00
- pIC50 [1, 7]: 8.04
- EC30 [2, 8]: < 3000 nM
- EC30 [2, 9]: 43.8 nM

SMILES: CC(C)c1n[nH]cc1CN(C)CCN [Compound 21]
- pIC50 [1, 4]: 5.02
- EC30 [2, 6]: > 20000 nM
- In Cell Western EC30 [2, 10]: C (“C” indicates an EC30 > 12.01 μM)

SMILES: CN(CCN)Cc1c[nH]nc1C1CCC2(CCCC2)CC1 [Compound 45]
- pIC50 [1, 4]: 8.28
- EC30 [2, 5]: < 3000 nM
- EC30 [2, 6]: 54 nM

SMILES: CN(CCN)Cc1c[nH]nc1C1CCC1 [Compound 26]
- pIC50 [1, 4]: 5.25
- EC30 [2, 6]: > 20000 nM
- In Cell Western EC30 [2, 10]: C (“C” indicates an EC30 > 12.01 μM)

SMILES: CC1CCC(c2c[nH]nc2CN(C)CCN)CC1 (stereo not shown) [Compound 35]
- pIC50 [1, 4]: 6.85
- EC30 [2, 6]: 730 nM
- In Cell Western EC30 [2, 10]: A (“A” indicates an EC30 ≤ 3.00 μM)

SMILES: CNCCN(C)Cc1c[nH]nc1C1CCC2(CC1)CC(C)OC(C)C2 (stereo not shown) [Compound 63]
- pIC50 [1, 3]: > 7.00
- pIC50 [1, 4]: 7.92
- EC30 [2, 5]: < 3000 nM
- EC30 [2, 6]: 1090 nM

SMILES: CCCc1n[nH]cc1CN(C)CCN [Compound 29]
- pIC50 [1, 4]: 5.42
- EC30 [2, 6]: > 20000 nM
- In Cell Western EC30 [2, 10]: C (“C” indicates an EC30 > 12.01 μM)

SMILES: CNCCN(C)Cc1c[nH]nc1C1CCC(COC)(COC)CC1 [Compound 57]
- pIC50 [1, 4]: 7.52
- EC30 [2, 5]: < 3000 nM
- EC30 [2, 6]: 25 nM
